Experimental data taken from ChEMBL document CHEMBL5352388 (Eur J Med Chem, 2022).

Legend:
[1] = molecular target: Lysine-specific histone demethylase 1A (Homo sapiens, UniProt O60341)
Description: Inhibition of recombinant human LSD1 using fluorometric substrate by HRP based fluorimeter microplate reader assay

MCF7 = assay: cells; conditions: Homo sapiens, MCF7, 72 h
Description: Antiproliferative activity against human MCF7 cells assessed as inhibition of cell growth incubated for 72 hrs by CCK-8 assay

A549 = assay: cells; conditions: Homo sapiens, A549, 72 h
Description: Antiproliferative activity against human A549 cells assessed as inhibition of cell growth incubated for 72 hrs by CCK-8 assay

MGC-803 = assay: cells; conditions: Homo sapiens, MGC-803, 72 h
Description: Antiproliferative activity against human MGC-803 cells assessed as inhibition of cell growth incubated for 72 hrs by CCK-8 assay

HeLa = assay: Antiproliferative activity against human HeLa cells assessed as inhibition of cell growth incubated for 72 hrs by CCK-8 assay; assay type: functional, cell-based
NCI-H460 = assay: cells; conditions: Homo sapiens, NCI-H460, 72 h
Description: Antiproliferative activity against human NCI-H460 cells assessed as inhibition of cell growth incubated for 72 hrs by CCK-8 assay

in vitro = conditions: human, THLE-2 cells
Description: Antiproliferative activity against human THLE-2 cells assessed as inhibition of cell growth incubated for 72 hrs by CCK-8 assay

IC50 [1] [µM] | IC50 (MCF7) [µM] | IC50 (A549) [µM] | IC50 (MGC-803) [µM] | IC50 (HeLa) [µM] | IC50 (NCI-H460) [µM] | IC50 at 72 h (in vitro) [µM] | Compound
22 | – | – | – | – | – | – | Cc1ccc(-c2cc3[nH]cc(C(=O)N4CCC(N)CC4)c3cc2-c2ccc(C(N)=O)cc2)cc1
0.208 | – | – | – | – | – | – | COc1ccc(-c2cc3[nH]cc(C(=O)N4CCC(N)CC4)c3cc2-c2ccc(C#N)cc2)c(F)c1
0.6 | – | – | – | – | – | – | Cc1ccc(-c2cc3[nH]cc(C(=O)N4CCC(N)CC4)c3cc2-c2ccc(C#N)cc2C)cc1
0.103 | 10.2 | 3.5 | 15.6 | 16.6 | 29.3 | 29.9 | Cc1ccc(-c2cc3[nH]cc(C(=O)N4CCC(N)CC4)c3cc2-c2ccc(C#N)cc2)cc1F
20 | – | – | – | – | – | – | Cc1ccc(-c2cc3[nH]cc(C(=O)N4CCC(N)CC4)c3cc2-c2ccc([N+](=O)[O-])cc2)cc1
0.18 | – | – | – | – | – | – | Cc1ccc(-c2cc3[nH]cc(C(=O)NCCN)c3cc2-c2ccc(C#N)cc2)cc1
0.114 | – | – | – | – | – | – | Cc1ccc(-c2cc3[nH]cc(C(=O)N4CCC(N)CC4)c3cc2-c2ccc(C#N)nc2)cc1
0.135 | – | – | – | – | – | – | Cc1ccc(-c2cc3[nH]cc(C(=O)N4CCC(CN)CC4)c3cc2-c2ccc(C#N)cc2)cc1
0.123 | 14.7 | 17.3 | 12.9 | 14.7 | 26.9 | 29.6 | CCc1ccc(-c2cc3[nH]cc(C(=O)N4CCC(N)CC4)c3cc2-c2ccc(C#N)cc2)cc1
0.369 | – | – | – | – | – | – | Cc1ccc(-c2cc3[nH]cc(C(=O)NC4CCNC4)c3cc2-c2ccc(C#N)cc2)cc1 (stereo unspecified)
0.208 | – | – | – | – | – | – | Cc1ccc(-c2cc3[nH]cc(C(=O)NCC4CCNC4)c3cc2-c2ccc(C#N)cc2)cc1 (stereo unspecified)
0.65 | – | – | – | – | – | – | Cc1ccc(-c2cc3[nH]cc(C(=O)N[C@H]4CC[C@H](N)CC4)c3cc2-c2ccc(C#N)cc2)cc1
0.028 | – | – | – | – | – | – | CCn1cc(C(=O)N2CCC(N)CC2)c2cc(-c3ccc(C#N)cc3)c(-c3ccc(C)cc3)cc21
0.118 | – | – | – | – | – | – | Cc1ccc(-c2cc3[nH]cc(C(=O)N4CCC(N)CC4)c3cc2-c2ccc(C#N)cc2)c(C)c1
0.061 | 7 | 5.3 | 8.8 | 10 | 13.6 | 11.8 | Cc1cc(C)cc(-c2cc3[nH]cc(C(=O)N4CCC(N)CC4)c3cc2-c2ccc(C#N)cc2)c1
0.954 | – | – | – | – | – | – | N#Cc1ccc(-c2cc3c(C(=O)N4CCC(N)CC4)c[nH]c3cc2-c2cncnc2)cc1
0.11 | – | – | – | – | – | – | Cc1ccc(-c2cc3c(cc2-c2ccc(C#N)cc2)c(C(=O)N2CCC(N)CC2)cn3S(=O)(=O)c2ccc(C#N)cc2)cc1
0.087 | 14.7 | 2.7 | 12.1 | 13.4 | 17.7 | 13.3 | Cc1ccc(-c2cc3[nH]cc(C(=O)N4CCC(N)CC4)c3cc2-c2ccc(C#N)c(F)c2)cc1
0.165 | – | – | – | – | – | – | CC(=O)Nc1ccc(S(=O)(=O)n2cc(C(=O)N3CCC(N)CC3)c3cc(-c4ccc(C#N)cc4)c(-c4ccc(C)cc4)cc32)cc1
0.15 | – | – | – | – | – | – | Cc1ccc(-c2cc3[nH]cc(C(=O)NCCCN)c3cc2-c2ccc(C#N)cc2)cc1

IC50 [1] [µM] | IC50 (MCF7) [µM] | IC50 (A549) [µM] | IC50 (MGC-803) [µM] | IC50 (HeLa) [µM] | IC50 (NCI-H460) [µM] | IC50 at 72 h (in vitro) [µM] | Compound
0.018 | – | – | – | – | – | – | Cc1ccc(-c2cc3c(cc2-c2ccc(C#N)cc2)c(C(=O)N2CCC(N)CC2)cn3C2CC2)cc1
0.085 | 6.1 | 8.8 | 9 | 11.4 | 16.2 | 17.5 | Cc1ccc(-c2cc3[nH]cc(C(=O)N4CCC[C@H](N)C4)c3cc2-c2ccc(C#N)cc2)cc1
0.015 | – | – | – | – | – | – | Cc1ccc(-c2cc3c(cc2-c2ccc(C#N)cc2)c(C(=O)N2CCC(N)CC2)cn3C(C)C)cc1
0.4 | – | – | – | – | – | – | Cc1ccc(-c2cc3[nH]cc(C(=O)NC4CCCNC4)c3cc2-c2ccc(C#N)cc2)cc1 (stereo unspecified)
0.335 | – | – | – | – | – | – | Cc1ccc(-c2cc3[nH]cc(C(=O)NC4CCNCC4)c3cc2-c2ccc(C#N)cc2)cc1
0.053 | 10 | 4.2 | 9.3 | 14.2 | 27.6 | 23.9 | Cc1ccc(-c2cc3[nH]cc(C(=O)N4CCC(N)CC4)c3cc2-c2ccc(C#N)cc2)cc1
1.74 | – | – | – | – | – | – | Cc1ccc(CS(=O)(=O)n2cc(C(=O)N3CCC(N)CC3)c3cc(-c4ccc(C#N)cc4)c(-c4ccc(C)cc4)cc32)cc1
0.897 | – | – | – | – | – | – | N#Cc1ccc(-c2cc3c(C(=O)N4CCC(N)CC4)c[nH]c3cc2-c2ccc(C(F)(F)F)cc2)cc1
0.06 | 8.5 | 15.4 | 9.8 | 12.6 | 9.4 | 16.1 | Cc1ccc(-c2cc3[nH]cc(C(=O)NCC4CCNCC4)c3cc2-c2ccc(C#N)cc2)cc1
23 | – | – | – | – | – | – | Cc1ccc(-c2cc3[nH]cc(C(=O)N4CCC(N)CC4)c3cc2-c2ccc(S(N)(=O)=O)cc2)cc1
0.05 | 14.7 | 4.3 | 15.6 | 13.7 | 18.6 | 20.8 | Cc1ccc(-c2cc3[nH]cc(C(=O)N4CCC(N)CC4)c3cc2-c2ccc(C#N)cc2)cc1C
0.012 | 7.1 | 5.5 | 5.3 | 7.1 | 4.7 | 7.3 | Cc1ccc(-c2cc3c(cc2-c2ccc(C#N)cc2)c(C(=O)N2CCC(N)CC2)cn3C)cc1
0.339 | – | – | – | – | – | – | Cc1ccc(-c2cc3[nH]cc(C(=O)N4CCC[C@@H](N)C4)c3cc2-c2ccc(C#N)cc2)cc1
20 | – | – | – | – | – | – | Cc1ccc(-c2cc3c(cc2-c2ccc(C(N)=O)cc2)c(C(=O)NC2CCNCC2)cn3C)cc1
0.063 | 16.9 | 2.3 | 24 | 27 | 28.3 | 27.8 | Cc1ccc(-c2cc3[nH]cc(C(=O)N4CCC(N)CC4)c3cc2-c2ccc(C#N)cc2)c(F)c1
0.969 | – | – | – | – | – | – | N#Cc1ccc(-c2cc3c(C(=O)N4CCC(N)CC4)c[nH]c3cc2-c2ccoc2)cc1
0.061 | 12.3 | 2.3 | 9.8 | 15.3 | 22.3 | 19.1 | Cc1ccc(-c2cc3[nH]cc(C(=O)N4CCNCC4)c3cc2-c2ccc(C#N)cc2)cc1
5 | – | – | – | – | – | – | Cc1ccc(-c2cc3[nH]cc(C(=O)N4CCC(N)CC4)c3cc2-c2ccc(O)cc2)cc1
24 | – | – | – | – | – | – | Cc1ccc(-c2cc3[nH]cc(C(=O)NC4CCNC4)c3cc2-c2ccc(C(N)=O)cc2)cc1 (stereo unspecified)

Compound | IC50 [1] [µM] | IC50 (MCF7) [µM] | IC50 (A549) [µM] | IC50 (MGC-803) [µM] | IC50 (HeLa) [µM] | IC50 (NCI-H460) [µM] | IC50 at 72 h (in vitro) [µM]
Cc1ccc(Cn2cc(C(=O)N3CCC(N)CC3)c3cc(-c4ccc(C#N)cc4)c(-c4ccc(C)cc4)cc32)cc1 | 0.858 | – | – | – | – | – | –
Cc1ccc(-c2cc3c(cc2-c2ccc(C#N)cc2)c(C(=O)N2CCC(N)CC2)cn3Cc2ccc(Br)cc2)cc1 | 1 | – | – | – | – | – | –
Cc1ccc(-c2cc3c(cc2-c2ccc(C#N)cc2)c(C(=O)N2CCC(N)CC2)cn3Cc2cccc(Br)c2)cc1 | 0.554 | – | – | – | – | – | –
Cc1ccc(-c2cc3c(cc2-c2ccc(C#N)cc2)c(C(=O)N2CCC(N)CC2)cn3Cc2ccc(Cl)cc2)cc1 | 0.691 | – | – | – | – | – | –
Cc1ccc(-c2cc3c(cc2-c2ccc(C#N)cc2)c(C(=O)N2CCC(N)CC2)cn3Cc2cccc(C#N)c2)cc1 | 0.161 | 6.7 | 3.4 | 4.6 | 6.6 | 7.7 | 5.8
